Results reported in patent US7101878B1 (Agouron Pharmaceuticals, Inc., priority 1998, dated 2006).
Read-outs that look alike come from different tables or passages of the source.

Biological target: T1, human GnRH receptor (Homo sapiens, UniProt P30968)
T1 construct: expressed in transfected cells; host or cells: HEK 293 (hGnRH-R/293, from Dr. Stuart Sealfon)
T1 sequence (P30968 1-328): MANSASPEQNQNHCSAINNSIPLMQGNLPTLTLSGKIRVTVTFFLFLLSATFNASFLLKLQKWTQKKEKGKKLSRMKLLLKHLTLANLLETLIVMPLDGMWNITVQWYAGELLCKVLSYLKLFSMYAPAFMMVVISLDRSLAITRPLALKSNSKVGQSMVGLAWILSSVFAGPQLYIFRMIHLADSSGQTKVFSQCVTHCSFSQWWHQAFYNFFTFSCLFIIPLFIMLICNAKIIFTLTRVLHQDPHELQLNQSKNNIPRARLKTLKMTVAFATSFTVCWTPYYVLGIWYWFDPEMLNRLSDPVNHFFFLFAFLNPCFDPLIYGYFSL
Assay: Radioligand binding, 125I-GnRH-A displacement, membranes of HEK 293 cells with human GnRH receptor
Settings: for IC50: read-out: hGnRH IC50; for remaining activity at 10 µM / remaining activity at 1 µM: substrate remaining, closer to zero = closer to 100% inhibition; for remaining activity at 10 µM: 10 uM compound, read-out: S%R 10 uM hGnRHR; for remaining activity at 1 µM: 1 uM compound, read-out: S%R 1 uM hGnRHR
How it was run: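 Bound tracer was separated by filtration through polyethyleneimine-soaked GF/C filters and counted by liquid scintillation. IC50 from curve fitting; other species were tested under the same conditions.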

[1] = 1 uM, read-out: % Inhib. @ 1 uM hGnRH
[2] = 1 h, repeat of % Inhib. at 1 uM, read-out: Repeats @ 1 uM hGnRH
[3] = repeat, read-out: Repeats @ 10 uM hGnRH (% inhib.)
[4] = read-out: % inhib. @ 10 uM hGnRH

COc1cc(OC)c([N+](=O)[O-])c(NC(=O)c2ccc(Cc3cc4c(cc3C)C(C)(C)CCC4(C)C)o2)c1[N+](=O)[O-] [Compound 173]
IC50: 2800 nM

Cc1cc2c(cc1Cc1ccc(C(=O)NCCCN3CCOCC3)o1)C(C)(C)CCC2(C)C [drawing 978]
inhibition at 1 µM [1]: 57%
inhibition at 1 µM [2]: 58%

Cc1cc2c(cc1Cc1ccc(C(=O)Nc3cccc(OC(F)(F)F)c3)o1)C(C)(C)CCC2(C)C [Compound 359]
remaining activity at 10 µM (1 h): 55%

Cc1cc2c(cc1Cc1ccc(C(=O)NC(C)CCc3ccccc3)o1)C(C)(C)CCC2(C)C (stereo not shown) [drawing 1130]
inhibition at 1 µM [1]: 52%
inhibition at 1 µM [2]: 52%

COc1ccc(CCNC(=O)c2ccc(Cc3cc4c(cc3C)C(C)(C)CCC4(C)C)o2)cc1 [drawing 1173]
inhibition at 1 µM [1]: 42%
inhibition at 1 µM [2]: 53%

Cc1cc2c(cc1Cc1ccc(C(=O)NCc3cccc(C(F)(F)F)c3)o1)C(C)(C)CCC2(C)C
inhibition at 1 µM [1]: -6%
inhibition at 1 µM [2]: 16%

Cc1cc2c(cc1Cc1ccc(C(=O)NCc3cccc(NC(=O)N(Cc4ccccc4)c4ccccc4)c3)o1)C(C)(C)CCC2(C)C [drawing 1029]
inhibition at 1 µM [1]: -4%
inhibition at 1 µM [2]: 2%

Cc1cc2c(cc1Cc1ccc(C(=O)NCc3ccc(F)cc3F)o1)C(C)(C)CCC2(C)C [drawing 1197]
inhibition at 1 µM [1]: 74%
inhibition at 1 µM [2]: 81%

Cc1cc2c(cc1Cc1ccc(C(=O)NCCNc3cccc(NCC4CCCO4)n3)o1)C(C)(C)CCC2(C)C (stereo not shown)
inhibition at 1 µM [1]: 18%
inhibition at 1 µM [2]: 22%

Cc1cc2c(cc1Cc1ccc(C(=O)Nc3ccc(N4CCOCC4)cc3)o1)C(C)(C)CCC2(C)C [Compound 30]
IC50: 1350 nM

CCOc1ccccc1CNC(=O)c1ccc(Cc2cc3c(cc2C)C(C)(C)CCC3(C)C)o1 [drawing 1096]
inhibition at 1 µM [1]: 48%
inhibition at 1 µM [2]: 55%

Cc1cc2c(cc1Cc1ccc(C(=O)NC3CC3)o1)C(C)(C)CCC2(C)C [Compound 431]
remaining activity at 1 µM (1 h): 47%

Cc1cc2c(cc1Cc1ccc(C(=O)Nc3ccccc3C(=O)NCc3cccnc3)o1)C(C)(C)CCC2(C)C [Compound 352]
remaining activity at 10 µM (1 h): 51%

Cc1cc2c(cc1Cc1ccc(C(=O)N3CCN(c4ccc([N+](=O)[O-])cc4)CC3)o1)C(C)(C)CCC2(C)C
inhibition at 1 µM [1]: -18%
inhibition at 1 µM [2]: 6%

Cc1cc2c(cc1Cc1ccc(C(=O)NCCc3c(Cl)cccc3Cl)o1)C(C)(C)CCC2(C)C
inhibition at 1 µM [1]: -40%
inhibition at 1 µM [2]: 17%

Cc1cc2c(cc1Cc1ccc(C(=O)NCCc3ccc(-c4ccccc4)cc3)o1)C(C)(C)CCC2(C)C
inhibition at 1 µM [1]: -17%
inhibition at 1 µM [2]: -31%

COCCNC(=O)c1ccc(Cc2cc3c(cc2C)C(C)(C)CCC3(C)C)o1 [Compound 40]
IC50: 530 nM

Cc1cc2c(cc1Cc1ccc(C(=O)NCCCNCCCCNCCCN)o1)C(C)(C)CCC2(C)C [drawing 1034]
inhibition at 1 µM [1]: -20%
inhibition at 1 µM [2]: -26%

Cc1cc2c(cc1Cc1ccc(C(=O)NC[C@H]3CCCO3)o1)C(C)(C)CCC2(C)C [Compound 57]
IC50: 830 nM

Cc1cc2c(cc1Cc1ccc(C(=O)N(C)CCc3ccccn3)o1)C(C)(C)CCC2(C)C
inhibition at 1 µM [1]: -11%
inhibition at 1 µM [2]: -7%

Cc1cc2c(cc1Cc1ccc(C(=O)NC(C)(C)Cc3ccc(F)cc3)o1)C(C)(C)CCC2(C)C
inhibition at 1 µM [1]: 21%
inhibition at 1 µM [2]: 22%

Cc1cccc(CNC(=O)c2ccc(Cc3cc4c(cc3C)C(C)(C)CCC4(C)C)o2)c1 [Compound 434]
remaining activity at 1 µM (1 h): 6%

CCOC(=O)N1CCC(C)(C)c2c(Cc3ccc(C(=O)Nc4c(OC)cc(OC)cc4OC)o3)c(OC)cc(OC)c21 [Compound 200.5]
IC50: 1230 nM

Cc1cc2c(cc1Cc1ccc(C(=O)NCc3ccc(F)cc3)o1)C(C)(C)CCC2(C)C [Compound 426]
remaining activity at 1 µM (1 h): 30%

Cc1cc2c(cc1Cc1ccc(C(=O)NCCc3cccc(Cl)c3)o1)C(C)(C)CCC2(C)C
inhibition at 1 µM [1]: 15%
inhibition at 1 µM [2]: 21%

COc1ccc(CNC(=O)c2ccc(Cc3cc4c(cc3C)C(C)(C)CCC4(C)C)o2)c(OC)c1 [Compound 450]
remaining activity at 1 µM (1 h): 6%

COc1ccc(C(O)C(CO)NC(=O)c2ccc(Cc3cc4c(cc3C)C(C)(C)CCC4(C)C)o2)cc1 (stereo not shown)
inhibition at 1 µM [1]: -11%
inhibition at 1 µM [2]: 24%

Cc1cc2c(cc1Cc1ccc(C(=O)Nn3c(O)nnc3-c3ccccc3)o1)C(C)(C)CCC2(C)C
inhibition at 10 µM [3]: -25%
inhibition at 10 µM [4]: -25%

Cc1cc2c(cc1Cc1ccc(C(=O)Nc3ccc(O)c(Cl)c3)o1)C(C)(C)CCC2(C)C [Compound 380]
remaining activity at 10 µM (1 h): 29%

CCN(CC)C(=O)c1ccc(Cc2cc3c(cc2C)C(C)(C)CCC3(C)C)o1 [Compound 238]
IC50: 7830 nM

Cc1cc2c(cc1Cc1ccc(C(=O)NC(c3ccccc3)C(O)c3ccccc3)o1)C(C)(C)CCC2(C)C (stereo not shown) [drawing 1072]
% Inhib. @ 1 uM hGnRH (1 uM): 56%
Repeats @ 1 uM hGnRH (repeat of % Inhib. at 1 uM): 57

Cc1cc2c(cc1Cc1ccc(C(=O)NCc3cccc(F)c3)o1)C(C)(C)CCC2(C)C [drawing 1195]
inhibition at 1 µM [1]: 81%
inhibition at 1 µM [2]: 82%

CCCc1nc(NC(=O)c2ccc(Cc3cc4c(cc3C)C(C)(C)CCC4(C)C)o2)ncc1C(=O)OCC [Compound 198]
insolubility remark in hGnRH IC50 cell (binding assay conditions): Insol. >3 uM
IC50: 780 nM

Cc1cc2c(cc1Cc1ccc(C(=O)Nc3ccccc3C)o1)C(C)(C)CCC2(C)C [Compound 362]
remaining activity at 10 µM (1 h): 1%

Cc1cc2c(cc1Cc1ccc(C(=O)Nc3cccc4c(=O)[nH][nH]c(=O)c34)o1)C(C)(C)CCC2(C)C [Compound 387]
remaining activity at 10 µM (1 h): 52%

Cc1cc2c(cc1Cc1ccc(C(=O)NCc3cccc(CNc4ncc(F)c(N)n4)c3)o1)C(C)(C)CCC2(C)C [Compound 157]
IC50: 620 nM

Cc1cc2c(cc1Cc1ccc(C(=O)N[C@@H](CO)Cc3ccc(O)cc3)o1)C(C)(C)CCC2(C)C
inhibition at 1 µM [1]: -12%
inhibition at 1 µM [2]: -9%

Cc1cc2c(cc1Cc1ccc(C(=O)Nc3ccccc3C(=O)Nc3cnccn3)o1)C(C)(C)CCC2(C)C
inhibition at 1 µM [1]: -27%
inhibition at 1 µM [2]: -29%

Cc1cc2c(cc1Cc1ccc(C(=O)N3CCN(c4nccc(NCC5CCCO5)n4)CC3)o1)C(C)(C)CCC2(C)C (stereo not shown)
inhibition at 1 µM [1]: 22%
inhibition at 1 µM [2]: 25%

Cc1cc2c(cc1Cc1ccc(C(=O)NCCCCCC(=O)O)o1)C(C)(C)CCC2(C)C
inhibition at 1 µM [1]: -12%
inhibition at 1 µM [2]: -9%

Cc1cc2c(cc1Cc1ccc(C(=O)NCCc3ccc(Br)cc3)o1)C(C)(C)CCC2(C)C [drawing 1171]
inhibition at 1 µM [1]: 16%
inhibition at 1 µM [2]: 24%

COc1cccc(C)c1NC(=O)c1ccc(Cc2cc3c(cc2C)C(C)(C)CCC3(C)C)o1 [Compound 378]
remaining activity at 10 µM (1 h): -4%

Cc1ccc2nc(C)n(NC(=O)c3ccc(Cc4cc5c(cc4C)C(C)(C)CCC5(C)C)o3)c(=O)c2c1
inhibition at 10 µM [3]: -4%
inhibition at 10 µM [4]: -4%

Cc1cc2c(cc1Cc1ccc(C(=O)NCCCCCCNC(=O)c3ccc(Cc4cc5c(cc4C)C(C)(C)CCC5(C)C)o3)o1)C(C)(C)CCC2(C)C [Compound 28]
IC50: > 10000 nM

Cc1cc2c(cc1Cc1ccc(C(=O)NCCc3cccc(C(F)(F)F)c3)o1)C(C)(C)CCC2(C)C [drawing 1020]
inhibition at 1 µM [1]: 33%
inhibition at 1 µM [2]: 89%

COc1cccc(CNC(=O)c2ccc(Cc3cc4c(cc3C)C(C)(C)CCC4(C)C)o2)c1OC [Compound 410]
remaining activity at 1 µM (1 h): 21%

CC(=O)c1cccc(NC(=O)c2ccc(Cc3cc4c(cc3C)C(C)(C)CCC4(C)C)o2)c1 [Compound 392]
remaining activity at 10 µM (1 h): 0%

Cc1cc2c(cc1Cc1ccc(C(=O)NC(C)c3ccccc3)o1)C(C)(C)CCC2(C)C (stereo not shown) [Compound 428]
remaining activity at 1 µM (1 h): 46%

Cc1cc2c(cc1Cc1ccc(C(=O)Nc3nc(N(C)C)nc4nc[nH]c34)o1)C(C)(C)CCC2(C)C [drawing 1008]
inhibition at 1 µM [1]: -13%
inhibition at 1 µM [2]: -9%

Cc1cc2c(cc1Cc1ccc(C(=O)NCC3CCN(c4ccnc(Cl)n4)CC3)o1)C(C)(C)CCC2(C)C [drawing 1064]
inhibition at 1 µM [1]: 79%
inhibition at 1 µM [2]: 91%

Cc1cc2c(cc1Cc1ccc(C(=O)NC3O[C@H](COC(=O)C(C)(C)C)[C@H](OC(=O)C(C)(C)C)[C@H](NC(=O)C(C)(C)C)[C@H]3OC(=O)C(C)(C)C)o1)C(C)(C)CCC2(C)C (stereo partly shown) [Compound 175]
IC50: > 10000 nM

CSc1ccc(NC(=O)c2ccc(Cc3cc4c(cc3C)C(C)(C)CCC4(C)C)o2)cc1 [Compound 366]
remaining activity at 10 µM (1 h): 37%

Cc1ccc(CNC(=O)c2ccc(Cc3cc4c(cc3C)C(C)(C)CCC4(C)C)o2)cc1 [Compound 435]
remaining activity at 1 µM (1 h): 12%

COc1cc(C)c(Cl)c(C)c1Cc1ccc(C(=O)NCc2cnc(C)cn2)o1 [Compound 237]
IC50: > 10000 nM

Cc1cc2c(cc1Cc1ccc(C(=O)NCc3ccc(C(C)(C)C)cc3)o1)C(C)(C)CCC2(C)C [drawing 1140]
inhibition at 1 µM [1]: -14%
inhibition at 1 µM [2]: -6%

Cc1nc2cc(NC(=O)c3ccc(Cc4cc5c(cc4C)C(C)(C)CCC5(C)C)o3)ccc2s1 [Compound 360]
remaining activity at 10 µM (1 h): 4%

COC(=O)c1ccc(OC)c(NC(=O)c2ccc(Cc3cc4c(cc3C)C(C)(C)CCC4(C)C)o2)c1 [Compound 361]
remaining activity at 10 µM (1 h): 4%

Cc1cc2c(cc1Cc1ccc(C(=O)NCCc3ccccc3)o1)C(C)(C)CCC2(C)C [Compound 405]
remaining activity at 1 µM (1 h): 40%
